# Assay results: patent US20050059731A1, “Erythrosin-based antimicrobial photodynamic therapy compound and its use” (CeramOptec Industries, Inc., priority 2003, published 2005)
# Tested on: Streptococcus mutans DSM6178 (ATCC 35668)
# Assay: Photodynamic inactivation of bacterial cell suspensions of Streptococcus mutans by Erythrosin B gel
# Format: cell-based
# Settings: in saliva; general statement
# Protocol: Photodynamic Inactivation of Bacterial Cell Suspensions of Streptococcus mutans by Erythrosin B: The organism used in this study was Streptococcus mutans DSM6178 (ATCC 35668). Gram-positive Streptococcus spec. are jointly responsible for the development of oral caries. Streptococcus mutans cells were grown aerobically overnight at 37° C. in Tryptic Soy Broth (Merck KGaA Darmstadt, Germany). Cells were harvested by centrifugation and resuspended in sterile phosphate-buffered saline (PBS) supplemented with 10% sterile filtered natural saliva. The final OD (Optical Density) at 600 nm, for a 1 cm path length, in all cases was 0.05. About 0.5 ml of an Erythrosin B gel of hydroxyethyl cellulose (1 mM, 2 mM, 3 mM and 8 mM Erythrosin B) were placed at the bottom of a tube. The gel was layered with 0.5 ml of the bacterial suspension and exposed for 1, 3 or 5 minutes, respectively under slight shaking at room temperature. After exposure 250 μl of the suspension was placed in a new tube, the tube was centrifuged, the supernatant was removed and the cell pellet was resuspended in 250 μl of PBS+10% natural saliva (sterile filtered). […] The fluence rate for these settings was about 0.1 W/cm^2 (measured with Optometer P-9710, Gigahertz-Optik GmbH, Puchheim, Germany). […]
smiles,measurement,value
O.O=C([O-])c1ccccc1-c1c2cc(I)c(=O)c(I)c-2oc2c(I)c([O-])c(I)cc12.[Na+].[Na+] [Erythrosin B],photosensitizing effectiveness against Gram-positive bacteria,effective photosensitizing substance against Gram-positive bacteria in saliva
